Earlier results in patent US12303619B2, “Polymer implants” (Foundry Therapeutics, Inc., priority 2018, dated 2025).

pKa: about 8.0
Structure (SMILES): CCCCN1CCCCC1C(=O)Nc1c(C)cccc1C (stereo not shown) [bupivacaine]
